In article PMC7906907, “Targeting STAT3 by a small molecule suppresses pancreatic cancer progression” (Oncogene, 2021) one finds STAT3 nuclear translocation data, which are given here for one compound.

The test system of this assay is STAT3 nuclear translocation. The assay is described as follows: Immunofluorescence of STAT3 nuclear translocation. It counts as cell-based. Conditions: PANC-1 cells, 2 μM for 24 h, then IL-6. How it is done:
Fig. 2 N4 inhibits STAT3 activation in pancreatic cancer cells. A PANC-1, CAPAN-2, and BXPC-3 cells were treated with the indicated concentrations of N4 for 24 h. Then, p-STAT3 (Y705), p-STAT3 (S727), and STAT3 were detected by western blot assays with glyceraldehyde 3-phosphate dehydrogenase (GAPDH) used as the loading control. B Pancreatic cancer cells were starved in a medium lacking fetal bovine serum (FBS; basic medium) for 24 h, and then pretreated with N4 in basic medium for 24 h. Then, stimulated with IL-6 (20 ng/mL) for 30 min and lysed for western blot analysis using the indicated antibodies. C Expression levels of STAT3 downstream genes were detected by western blot following treatment of PANC-1 and CAPAN-2 cells with N4. D PANC-1 cells were seeded and allowed to attach, and then pretreated with 2 μM of N4 in FBS-free medium for 24 h. The cells were stimulated for 30 min using IL-6 (20 ng/mL). […] The samples were photographed and analyzed. […] E After 24 h treatment with 2 μM N4, PANC-1 cells were stimulated with IL-6 (20 ng/mL) for 30 min, and the cytoplasmic and nuclear extractions were analyzed by western blot. p-STAT3 (Y705) was used to detect STAT3, and GAPDH and H3 were used as the cytoplasm and nucleus internal control, respectively.
Immunofluorescence staining was performed as previously described. […] Images were recorded by confocal microscopy (Leica).

With `COc1cc2c(cc1C(=O)Nc1cccc3cccnc13)CCC1C(C)(C)C(=O)C(C#N)=C[C@]21C` (stereo partly shown) [N4], the STAT3 nuclear translocation entry is on record as “substantially impaired”.
